Data as given in US6462078B1, “Epoxyvibsanin B” (priority 2001, dated 2002).

Tests used:
Type in all cases: cell-based, human
IL-12 production [1] = assay: IL-12 inhibitory assay in THP-1 cells stimulated with IFN-γ and SAC (IL-12 p70 sandwich ELISA); conditions: THP-1 800,000 cells per well, IFN-γ 2000 U/ml + SAC 0.05%; read-out: IC50, inhibition of IL-12 production
Protocol: The inhibition of IL-12 production was further tested in parallel experiments using two cell lines: PBMC and the human promonocytic leukemia mononuclear cells (THP-1 cells). As described above, PBMC were added to a 96-well plate with 500,000 cells per well, and stimulated for IL-12 production with IFN-γ (200 U/ml) and LPS (1 μg/ml). In parallel, THP-1 cells were added to a 96-well plate with 800,000 cells per well, and stimulated for IL-12 production with IFN-γ (2000 U/ml) and Staph Aureus Cowan I (0.05%, SAC or Pansorbin; from Calbiochem; lot no. B15921). The supernatant from each cell culture was harvested and analyzed for IL-12 p70 with a sandwich ELISA by using the antibodies indicated above. […] The activity of epoxyvibsanin B in inhibiting IL-12 production is 10-fold that of a known anti-inflammatory compound, dexamethazone.

IL-12 production [2] = assay: IL-12 inhibitory assay in PBMC stimulated with IFN-γ and LPS (IL-12 p70 sandwich ELISA)
Protocol: Mononuclear cells from human peripheral blood (PBMC) were harvested from a leukopak using standard procedures. The cells, diluted to three millions per mL, were maintained in RPMI medium supplemented with fetal calf serum (10%), penicillin (100 U/mL), streptomycin (100 μg/mL) and […] (2 mM). Human interferon gamma (IFN-γ, Boehringer Mannheim; catalog no. 1040596) was diluted to 60 units/mL using the cell-containing supplemented medium. 100 μL of the resulting cell culture was added to each well of a 96-well U-shaped bottom microtiter plate, and incubated overnight in a humidified 37° C., 7% CO2 incubator. Epoxyvibsanin B in 4×RPMI stock medium was added to each well with a final concentration of 1 μg/mL, followed by the addition of lipopolysaccharide (LPS, Serratia […] Sigma; catalog no. L-4766) in 4×RPMI stock medium with a final concentration of 1 μg/mL. The plate was gently vortexed and continuously incubated for 16 hrs. IFN-γ and LPS have stimulated PBMC for IL-12 production. The supernatant from each cell culture was harvested, and the secreted IL-12 p70 in the supernatant was quantitated with a sandwich ELISA using anti-human IL-12 antibodies (R & D systems; catalog no. mAb 611 and catalog no. BAF 219). An epoxyvibsanin B-free control experiment was also perfonned. […] The inhibition of IL-12 production was further tested in parallel experiments using two cell lines: PBMC and the human promonocytic leukemia mononuclear cells (THP-1 cells). As described above, PBMC were added to a 96-well plate with 500,000 cells per well, and stimulated for IL-12 production with IFN-γ (200 U/ml) and LPS (1 μg/ml). In parallel, THP-1 cells were added to a 96-well plate with 800,000 cells per well, and stimulated for IL-12 production with IFN-γ (2000 U/ml) and Staph Aureus Cowan I (0.05%, SAC or Pansorbin; from Calbiochem; lot no. B15921). The supernatant from each cell culture was harvested and analyzed for IL-12 p70 with a sandwich ELISA by using the antibodies indicated above. […]

PBMC = system: PBMC
Protocol: (§1) Epoxyvibsanin B was also tested for cytotoxicity using a Cell Titer 96 Aqueous Non-radioactive kit (Promega, order no. G5421). Phenazine methosulfate (Sigma; catalog no. P 5812) was added as an electron donor to a cell culture containing PBMC (500,000 cells per well) and epoxyvibsanin B (final concentration of 1 μg/ml). 3-(4,5-Dimethylthiazole-2-yl)-5-(3-carbomethoxyphenyl)-2-(4-sulphophenyl)-2H-tetrazolium (MTS) was then added. Cells were incubated for 2 hours in a humidified 37° C., 7% CO2 incubator. The supernatant from the cell culture was harvested and its absorbance at 490 nm was recorded. Cell viability was determined based on the level of MTS (which reacted with mitochondria dehydrogenases enzymes in the living cells), as compared to that obtained from an epoxyvibsanin B-free control experiment. Epoxyvibsanin B was further tested for cytotoxicity toward THP-1 cells.

THP-1 cells = assay: Cytotoxicity assay (MTS) in THP-1 cells
Protocol: as §1

IC50 (IL-12 production [1]): 20 nM
IC50 (IL-12 production [2]; PBMC 500,000 cells per well, IFN-γ 200 U/ml + LPS 1 μg/ml, read-out: IC50, inhibition of IL-12 production): ~1 nM
Substance: epoxyvibsanin B
inhibition of IL-12 production, as compared with control (IL-12 production [2]; PBMC, IFN-γ 60 units/mL + LPS 1 μg/mL, compound 1 μg/mL, 16 hrs): 90%
activity in inhibiting IL-12 production relative to dexamethazone (IL-12 production [2]; compared with dexamethazone, cell type not specified): 10 fold
CC50 (PBMC): 5000 nM
cytotoxicity compared with dexamethazone (PBMC): lower than that of dexamethazone
CC50 (THP-1 cells): 10000 nM
